Results as given in PMC6982996, “Discovery of [1,2,4]Triazole Derivatives as New Metallo-β-Lactamase Inhibitors” (Molecules, 2019).
Read-outs that look alike come from different tables or passages of the source.

What was measured:
[1] = biological target: T1, VIM-2 (Escherichia coli, UniProt Q5U7L7)
T1 construct: Li's Laboratory, Sichuan University (collaborator, a gift and not a purchase)

[2] = test system: AmpC; assay: AmpC SBL inhibition assay (counter screen); type: biochemical; details: 10 μM; mean ± SD (n = 3)
Method: (§1) Considering that MBLs and SBLs are two catalogs of β-lactamases, we further tested the compound 5l against some representative SBL enzymes, including KPC-2 (Klebsiella pneumoniae carbapenemase 2), TEM-1, AmpC, and OXA-48 (Oxacillinase 48), with the aim of investigating its selectivity; particularly, this is used as a counter screening to indicate the specific inhibition to MBLs.
(§2) All the target compounds were freshly prepared in 100 mM DMSO stock solutions. All the MBL and SBL enzymes used in this study were obtained from our collaborator, Li’s Laboratory in Sichuan University. Each compound was initially evaluated for inhibitory activity to MBL and SBL enzymes at 100 and 10 μM, by preincubation with the appropriate amount of enzymes in the assay buffer for 10 min, followed by adding the substrate FC5 to initiate the reactions, and monitoring the fluorescence at λex of 380 nm and λem of 460 nm. The IC50 values for the compounds (with 10 different concentrations in threefold dilution) were further determined. All determinations were tested in triplicate. The IC50 values were obtained from the plot of activity versus inhibitor concentration by using the GraphPad Prism software.

[3] = biological target: T2, VIM-1 (Pseudomonas aeruginosa, UniProt A0A0F7KYQ8); assay: VIM-1 inhibition assay (FC5 fluorogenic substrate); type: biochemical; details: @ 100 μM; mean ± SD (n = 3)
T2 construct: Li's Laboratory, Sichuan University (collaborator, a gift and not a purchase)
Method: (§3) Then, we tested all the target compounds against other B1 MBL enzymes, including NDM-1, IMP-1, VIM-1, and VIM-5 (Table 1); all the assay conditions (including enzyme/substrate concentrations) are the same as that previously used. […]. […].
as §2

[4] = test system: VIM-5; assay: VIM-5 inhibition assay (FC5 fluorogenic substrate); type: biochemical; details: @ 100 μM; mean ± SD (n = 3)
Method: as §3, §2

[5] = biological target: T3, TEM-1 (Escherichia coli, UniProt P62593); assay: TEM-1 SBL inhibition assay (counter screen); type: biochemical; details: mean ± SD (n = 3)
T3 construct: Li's Laboratory, Sichuan University (collaborator, a gift and not a purchase)
T3 sequence (P62593 24-286 limits assumed): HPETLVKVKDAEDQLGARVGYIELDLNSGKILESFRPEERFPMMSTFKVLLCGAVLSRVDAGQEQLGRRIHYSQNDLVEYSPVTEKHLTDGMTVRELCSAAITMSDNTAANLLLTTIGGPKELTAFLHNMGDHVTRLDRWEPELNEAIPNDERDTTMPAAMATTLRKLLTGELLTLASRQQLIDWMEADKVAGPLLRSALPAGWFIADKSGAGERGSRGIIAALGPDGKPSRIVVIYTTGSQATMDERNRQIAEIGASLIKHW
Method: as §1, §2

[6] = biological target: T1, VIM-2; assay: VIM-2 inhibition assay (FC5 fluorogenic substrate); type: biochemical; details: for inhibition at 10 µM / inhibition at 100 µM: mean ± SD (n = 3)
Method: as §2

[7] = biological target: T4, OXA-48 (Klebsiella pneumoniae, UniProt Q6XEC0); assay: OXA-48 SBL inhibition assay (counter screen); type: biochemical
T4 construct: Li's Laboratory, Sichuan University (collaborator, a gift and not a purchase)
T4 sequence (Q6XEC0 23-265 limits assumed): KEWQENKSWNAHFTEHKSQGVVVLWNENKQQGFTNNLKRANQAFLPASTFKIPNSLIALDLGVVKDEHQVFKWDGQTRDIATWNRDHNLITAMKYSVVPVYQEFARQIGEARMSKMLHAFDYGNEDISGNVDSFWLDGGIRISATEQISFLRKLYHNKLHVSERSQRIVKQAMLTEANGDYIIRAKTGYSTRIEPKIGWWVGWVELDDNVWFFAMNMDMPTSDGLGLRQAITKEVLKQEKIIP
Method: as §1, with “MBLs. […] […].” for “MBLs.”
as §2

[8] = biological target: T5, KPC-2 (Klebsiella pneumoniae, UniProt Q9F663); assay: KPC-2 SBL inhibition assay (counter screen); type: biochemical; details: mean ± SD (n = 3)
T5 construct: Li's Laboratory, Sichuan University (collaborator, a gift and not a purchase)
T5 sequence (Q9F663 25-293, looked up): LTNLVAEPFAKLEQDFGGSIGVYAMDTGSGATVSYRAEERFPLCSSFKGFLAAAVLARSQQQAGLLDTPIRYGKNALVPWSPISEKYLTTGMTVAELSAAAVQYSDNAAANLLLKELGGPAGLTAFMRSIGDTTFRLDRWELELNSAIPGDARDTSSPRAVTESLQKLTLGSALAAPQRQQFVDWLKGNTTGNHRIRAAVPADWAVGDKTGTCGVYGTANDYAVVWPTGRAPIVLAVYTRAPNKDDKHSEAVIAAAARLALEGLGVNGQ
Method: as §1, with “MBLs. […] […].” for “MBLs.”
as §2

[9] = biological target: T6, NDM-1 (Klebsiella pneumoniae, UniProt C7C422); assay: NDM-1 inhibition assay (FC5 fluorogenic substrate); type: biochemical; details: mean ± SD (n = 3)
T6 construct: Li's Laboratory, Sichuan University (collaborator, a gift and not a purchase)
T6 sequence (C7C422 29-270, looked up, species assumed): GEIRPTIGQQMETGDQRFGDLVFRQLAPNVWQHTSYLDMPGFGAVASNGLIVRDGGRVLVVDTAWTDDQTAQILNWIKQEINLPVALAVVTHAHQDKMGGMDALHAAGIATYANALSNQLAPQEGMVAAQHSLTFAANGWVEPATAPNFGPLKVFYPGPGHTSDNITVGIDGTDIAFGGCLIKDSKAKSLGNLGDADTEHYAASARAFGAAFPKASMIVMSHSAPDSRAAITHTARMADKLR
Method: as §3, §2

[10] = test system: CfiA; details: Figure 1, reported natural product; read-out: CfiA IC50 (reported MBL inhibitors); cited from earlier work
[11] = biological target: T7, IMP-1 (Serratia marcescens, UniProt P52699); details: Figure 1, reported inhibitors; read-out: IMP-1 IC50 (reported MBL inhibitors); cited from earlier work
T7 construct: Li's Laboratory, Sichuan University (collaborator, a gift and not a purchase)
T7 sequence (P52699 19-246 limits assumed): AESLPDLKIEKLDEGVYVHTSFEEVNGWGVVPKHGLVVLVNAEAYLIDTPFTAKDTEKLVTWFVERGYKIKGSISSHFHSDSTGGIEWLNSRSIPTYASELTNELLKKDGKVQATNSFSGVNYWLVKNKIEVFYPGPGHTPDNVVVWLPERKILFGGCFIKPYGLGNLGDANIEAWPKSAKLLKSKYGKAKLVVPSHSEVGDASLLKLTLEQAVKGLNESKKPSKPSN

[12] = test system: B3 L1 MBL; parameters: method as in PMID 17999929, PMID 20625539, PMID 25893049; details: Figure 1, reported inhibitor; read-out: L1 IC50 (reported MBL inhibitors); cited from earlier work
[13] = biological target: T6, NDM-1; details: Figure 1, reported inhibitors; read-out: NDM-1 IC50 (reported MBL inhibitors); cited from earlier work
[14] = biological target: T7, IMP-1; assay: IMP-1 inhibition assay (FC5 fluorogenic substrate); type: biochemical; details: mean ± SD (n = 3)
Method: as §3, §2

[15] = Figure 1, reported inhibitors; read-out: VIM-2 IC50 (reported MBL inhibitors); cited from earlier work

For `O=C(CSc1nnc(-c2ccccc2C(=O)O)[nH]1)Nc1nc2ccccc2s1` [IV], the Ki ([1]; Figure 1, reported inhibitor; read-out: VIM-2 Ki (reported MBL inhibitors); cited from earlier work) is given as 1.2 µM.

For `NCCN[C@H]1CC[C@H](CC(=O)N[C@H]2Cc3cccc(C(=O)O)c3OB2O)CC1` [IX, taniborbactam], the IC50 [1, 15] is listed as 0.0005 µM.

In the case of `Brc1ccc(-c2nnc3n2CCCS3)cc1` [5l, 3-(4-Bromophenyl)-6,7-dihydro-5H-[1,2,4]triazolo[3,4-b][1,3]thiazine], the “Inhibition % AmpC” value [2] is reported as 13 ± 2%, the inhibition at 100 µM [3] is reported as 23 ± 1% and the “Inhibition % VIM-5” value [4] is reported as 33 ± 2/– %. For the same compound, the inhibition at 10 µM ([5]; 10 μM) was 9 ± 1%, the “Inhibition % TEM-1” value ([5]; 100 μM) was “No or low inhibitory activities” and the inhibition at 100 µM ([5]; 100 μM) was 20 ± 3%. It also gave an IC50 ([6]; 10 concentrations in threefold dilution, triplicate, read-out: IC50 against VIM-2) of 38.4 µM, an inhibition at 10 µM [6] of 53% and an inhibition at 100 µM [6] of 86 ± 5%. The “Inhibition % OXA-48” value ([7]; 100 μM, mean ± SD (n = 3)) was “No or low inhibitory activities”, the inhibition at 10 µM ([7]; read-out: Inhibition % OXA-48) was 7 ± 1% and the inhibition at 100 µM ([7]; read-out: Inhibition % OXA-48) was 17 ± 2%. The inhibition at 10 µM ([8]; 10 μM) was 2 ± 1%, the “Inhibition % KPC-2” value ([8]; 100 μM) was “No or low inhibitory activities” and the inhibition at 100 µM ([8]; 100 μM) was 8 ± 2%. The inhibition at 10 µM [9] was 10% and the inhibition at 100 µM [9] was 8 ± 1%.

In the case of `CO[C@@H]1O[C@@H](C)Cc2oc3cc(O)c(O)c(C(=O)O)c3c(=O)c21` [X], the IC50 [10] is listed as 29 µM and the IC50 [11] is listed as 113 µM.

In the case of `Cc1ccccc1-c1nnc(S)n1/N=C/c1ccccc1C(=O)O` [V], the IC50 [12] is given as 15 µM.

For `N[C@@H](CN[C@@H](CN[C@@H](CC(=O)O)C(=O)O)C(=O)O)C(=O)O` [XI, AMA], the IC50 [1, 15] is given as 9.6 µM and the IC50 [13] is given as 4 µM.

In the case of `C[C@H](CS)C(=O)N[C@@H](Cc1coc2ccccc12)B(O)O` [III], the IC50 [1, 15] is listed as 0.44 µM and the IC50 [13] is listed as 37.9 µM.

For `C[C@H](CS)C(=O)N[C@@H](C(=O)O)c1ccc(O)cc1` [II], the IC50 [1, 15] is given as 0.0137 µM and the IC50 [13] is given as 3.57 µM.

For `O=C(/C=C/c1ccc(O)c(O)c1)O[C@H](Cc1ccc(O)c(O)c1)C(=O)O` [XII, Rosmarinic acid], the IC50 ([1]; read-out: VIM-2 IC50 (reported MBL inhibitors); Figure 1, reported inhibitors; cited from earlier work) is given as 41.5 µM.

Compound `Fc1ccc(-c2nnc3n2CCCS3)cc1` [5j, 3-(4-Fluorophenyl)-6,7-dihydro-5H-[1,2,4]triazolo[3,4-b][1,3]thiazine] has an inhibition at 10 µM ([14]; @ 10 μM) of 13%, an inhibition at 100 µM ([14]; @ 100 μM) of 8 ± 1% and an inhibition at 100 µM [3] of 27 ± 1%. The “Inhibition % VIM-5” value [4] was 14 ± 1/– %, the inhibition at 10 µM [6] was 32% and the inhibition at 100 µM [6] was 34 ± 3%. For the same compound, the inhibition at 10 µM [9] was 23 ± 2% and the inhibition at 100 µM [9] was 23 ± 2%.
